From patent US8546389B2 (priority 2010, dated 2013)
Like-named read-outs stand apart in the source and are kept apart here.

Experiments:
[1] = target: genotype 3a (VRL-69) NS5bΔ21 polymerase (Hepatitis C virus genotype 3a, UniProt Q81258); assay: HCV polymerase inhibition assay, genotype 3a; assay type: biochemical, HCV genotype 3a (VRL-69); conditions: genotype 3a; read-out: 3a NS5b polymerase IC50
Procedure: HCV polymerase reactions were carried out using a modified method of Howe et al., Antimicrobial Agents and Chemotherapy 2004 48(12): 4813-4821. Reactions contained a final concentration of, 0.5% DMSO, 50 nM, 1b (BK) NS5bΔ21, 20 mM Tris-HCl pH 7.5, 5 mM MgCl2, 5 mM MnCl2, 3 mM DTT, 0.05% BSA, 0.2 U/μL RNasin, 10 μg/mL Poly(rC) template, GTP (at Km) and 0.05 μCi/μL ^33P-GTP in a total reaction volume of 50 μL. Compounds were tested in a three fold dilution series, for example starting from 50 μM. Reactions were initiated with the addition of GTP and terminated after 1 hour with 50 μL ice cold 0.2 M EDTA. Terminated reactions were transferred to DEAE 96-well filter plates, unincorporated nucleotides washed from the filters and 50 μL scintillation fluid added prior to reading on a scintillation counter. Similarly, a genotype 3a (VRL-69) NS5bΔ21 polymerase enzyme assay was conducted using essentially the same method.
The compound concentration that reduced ^33P-GTP incorporation by 50% (IC50) was calculated using non-linear regression.

[2] = tested on: genotype 1b (Con 1) subgenomic replicon cell line; assay: HCV replicon assay, genotype 1b (Renilla luciferase); assay type: cell-based, HCV genotype 1b (Con 1); conditions: Hepatitis C virus, genotype 1b replicon
Outline: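 Subgenomic replicon cells expressing Renilla luciferase (1b Con1; 1a and 2a lines by the same method) seeded at 7000 cells/well (5000 for 2a) without G418, exposed to 3-fold compound dilutions for 72 h at 37 °C. Luciferase activity measured; EC50 by non-linear regression.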

[3] = tested on: genotype 1b (Con 1) subgenomic replicon cell line; assay: Combination studies in replicon cells (MacSynergy II); assay type: cell-based, HCV genotype 1b (Con 1)
Procedure: (§1) A genotype 1b (Con 1) subgenomic replicon cell line based on Blight et al., Science 2000 290: 1972-1974, modified to express a Renilla luciferase reporter gene was used to assess synergy of test compounds. Cell cultures were maintained in a sub-confluent state in DMEM with glutamine, 10% heat-inactivated foetal bovine serum (FBS) and G418 (Geneticin®).
For assay, cells were seeded at a density of 7000 cells/well into 96 well tissue culture trays in culture media lacking G418. The compound concentration that reduced luciferase activity by 50% (EC50) was determined independently for each compound and used to set the range of concentrations for the combination experiments. […] The ratio of the 2 compounds tested remained fixed across the titration range. […] After 72 hours incubation at 37° C. and 5% CO2, Renilla luciferase activity was quantified via the Promega Renilla Luciferase Assay System.
Results were analysed and levels of synergy assessed via generation of 3D synergy plots using MacSynergy™ II (Prichard, M. N., K. R. Aseltine, and C. Shipman, Jr. 1993. MacSynergy II. Version 1.0. User's manual. University of Michigan, Ann Arbor.). […] Compound 175 was selected as a representative example of the compounds of the invention for synergistic studies.

[4] = target: 1b (BK) NS5bΔ21 (Hepatitis C virus genotype 1b (isolate BK) (HCV), UniProt P26663); assay: HCV polymerase inhibition assay, genotype 1b; assay type: biochemical, HCV genotype 1b (BK)
Outline: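 NS5bΔ21 (50 nM) in Tris-HCl pH 7.5 with Mg2+/Mn2+, DTT, BSA, 0.5% DMSO, poly(rC) template, GTP at Km and ^33P-GTP; 3-fold compound dilutions. GTP-started reactions stopped with EDTA after 1 h; incorporation read by DEAE filter scintillation counting. IC50 by non-linear regression; 3a enzyme run the same way.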

[5] = tested on: subgenomic genotype 1a replicon cell line; assay: HCV replicon assay, genotype 1a; assay type: cell-based, HCV genotype 1a; conditions: Hepatitis C virus
Procedure: as §1, with “antiviral activity” for “synergy”
(§2) For assay, cells were seeded at a density of 7000 cells/well into 96 well tissue culture trays in culture media lacking G418. Compounds were tested in a three fold dilution series, for example starting from 50 uM. After 72 hours incubation at 37° C. and 5% CO2, Renilla luciferase activity was quantified via the Promega Renilla Luciferase or Renilla-Glo™ Luciferase Assay Systems (Promega corporation. The same method was employed for replicon assays using subgenomic genotype 1a and 2a replicon cell lines with a seeding cell density of 5000 cells/well for the 2a cell lines.
(§3) The compound concentration that reduced luciferase activity by 50% (EC50) was calculated using non-linear regression.

[6] = tested on: subgenomic genotype 2a replicon cell line; assay: HCV replicon assay, genotype 2a; assay type: cell-based, HCV genotype 2a; conditions: Hepatitis C virus
Procedure: as §1, with “antiviral activity” for “synergy”
as §2, §3

[7] = 72 hours, luciferase, read-out: genotype 1b EC50 (range class)
[8] = 1b (BK) NS5bΔ21, 33P-GTP incorporation, read-out: 1b polymerase IC50 (range class)
[9] = genotype 1b, read-out: 1b NS5b polymerase IC50

Sequence of 1b (BK) NS5bΔ21 (P26663 2420-2989): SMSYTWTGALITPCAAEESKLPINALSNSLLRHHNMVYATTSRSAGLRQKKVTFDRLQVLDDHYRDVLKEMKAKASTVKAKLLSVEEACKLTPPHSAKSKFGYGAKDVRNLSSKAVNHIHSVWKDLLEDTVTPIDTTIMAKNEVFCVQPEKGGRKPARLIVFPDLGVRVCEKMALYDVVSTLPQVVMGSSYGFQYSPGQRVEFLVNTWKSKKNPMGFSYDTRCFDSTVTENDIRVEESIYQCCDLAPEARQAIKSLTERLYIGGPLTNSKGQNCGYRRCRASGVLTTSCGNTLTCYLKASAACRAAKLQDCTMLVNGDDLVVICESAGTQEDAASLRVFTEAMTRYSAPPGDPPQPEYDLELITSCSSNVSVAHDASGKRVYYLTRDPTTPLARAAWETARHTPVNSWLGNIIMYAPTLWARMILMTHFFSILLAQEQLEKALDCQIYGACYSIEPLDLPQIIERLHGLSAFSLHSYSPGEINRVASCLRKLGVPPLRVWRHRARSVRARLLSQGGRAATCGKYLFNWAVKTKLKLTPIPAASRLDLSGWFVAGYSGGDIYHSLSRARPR
Sequence of genotype 3a (VRL-69) NS5bΔ21 polymerase (Q81258 whole entry, looked up, stated change not applied): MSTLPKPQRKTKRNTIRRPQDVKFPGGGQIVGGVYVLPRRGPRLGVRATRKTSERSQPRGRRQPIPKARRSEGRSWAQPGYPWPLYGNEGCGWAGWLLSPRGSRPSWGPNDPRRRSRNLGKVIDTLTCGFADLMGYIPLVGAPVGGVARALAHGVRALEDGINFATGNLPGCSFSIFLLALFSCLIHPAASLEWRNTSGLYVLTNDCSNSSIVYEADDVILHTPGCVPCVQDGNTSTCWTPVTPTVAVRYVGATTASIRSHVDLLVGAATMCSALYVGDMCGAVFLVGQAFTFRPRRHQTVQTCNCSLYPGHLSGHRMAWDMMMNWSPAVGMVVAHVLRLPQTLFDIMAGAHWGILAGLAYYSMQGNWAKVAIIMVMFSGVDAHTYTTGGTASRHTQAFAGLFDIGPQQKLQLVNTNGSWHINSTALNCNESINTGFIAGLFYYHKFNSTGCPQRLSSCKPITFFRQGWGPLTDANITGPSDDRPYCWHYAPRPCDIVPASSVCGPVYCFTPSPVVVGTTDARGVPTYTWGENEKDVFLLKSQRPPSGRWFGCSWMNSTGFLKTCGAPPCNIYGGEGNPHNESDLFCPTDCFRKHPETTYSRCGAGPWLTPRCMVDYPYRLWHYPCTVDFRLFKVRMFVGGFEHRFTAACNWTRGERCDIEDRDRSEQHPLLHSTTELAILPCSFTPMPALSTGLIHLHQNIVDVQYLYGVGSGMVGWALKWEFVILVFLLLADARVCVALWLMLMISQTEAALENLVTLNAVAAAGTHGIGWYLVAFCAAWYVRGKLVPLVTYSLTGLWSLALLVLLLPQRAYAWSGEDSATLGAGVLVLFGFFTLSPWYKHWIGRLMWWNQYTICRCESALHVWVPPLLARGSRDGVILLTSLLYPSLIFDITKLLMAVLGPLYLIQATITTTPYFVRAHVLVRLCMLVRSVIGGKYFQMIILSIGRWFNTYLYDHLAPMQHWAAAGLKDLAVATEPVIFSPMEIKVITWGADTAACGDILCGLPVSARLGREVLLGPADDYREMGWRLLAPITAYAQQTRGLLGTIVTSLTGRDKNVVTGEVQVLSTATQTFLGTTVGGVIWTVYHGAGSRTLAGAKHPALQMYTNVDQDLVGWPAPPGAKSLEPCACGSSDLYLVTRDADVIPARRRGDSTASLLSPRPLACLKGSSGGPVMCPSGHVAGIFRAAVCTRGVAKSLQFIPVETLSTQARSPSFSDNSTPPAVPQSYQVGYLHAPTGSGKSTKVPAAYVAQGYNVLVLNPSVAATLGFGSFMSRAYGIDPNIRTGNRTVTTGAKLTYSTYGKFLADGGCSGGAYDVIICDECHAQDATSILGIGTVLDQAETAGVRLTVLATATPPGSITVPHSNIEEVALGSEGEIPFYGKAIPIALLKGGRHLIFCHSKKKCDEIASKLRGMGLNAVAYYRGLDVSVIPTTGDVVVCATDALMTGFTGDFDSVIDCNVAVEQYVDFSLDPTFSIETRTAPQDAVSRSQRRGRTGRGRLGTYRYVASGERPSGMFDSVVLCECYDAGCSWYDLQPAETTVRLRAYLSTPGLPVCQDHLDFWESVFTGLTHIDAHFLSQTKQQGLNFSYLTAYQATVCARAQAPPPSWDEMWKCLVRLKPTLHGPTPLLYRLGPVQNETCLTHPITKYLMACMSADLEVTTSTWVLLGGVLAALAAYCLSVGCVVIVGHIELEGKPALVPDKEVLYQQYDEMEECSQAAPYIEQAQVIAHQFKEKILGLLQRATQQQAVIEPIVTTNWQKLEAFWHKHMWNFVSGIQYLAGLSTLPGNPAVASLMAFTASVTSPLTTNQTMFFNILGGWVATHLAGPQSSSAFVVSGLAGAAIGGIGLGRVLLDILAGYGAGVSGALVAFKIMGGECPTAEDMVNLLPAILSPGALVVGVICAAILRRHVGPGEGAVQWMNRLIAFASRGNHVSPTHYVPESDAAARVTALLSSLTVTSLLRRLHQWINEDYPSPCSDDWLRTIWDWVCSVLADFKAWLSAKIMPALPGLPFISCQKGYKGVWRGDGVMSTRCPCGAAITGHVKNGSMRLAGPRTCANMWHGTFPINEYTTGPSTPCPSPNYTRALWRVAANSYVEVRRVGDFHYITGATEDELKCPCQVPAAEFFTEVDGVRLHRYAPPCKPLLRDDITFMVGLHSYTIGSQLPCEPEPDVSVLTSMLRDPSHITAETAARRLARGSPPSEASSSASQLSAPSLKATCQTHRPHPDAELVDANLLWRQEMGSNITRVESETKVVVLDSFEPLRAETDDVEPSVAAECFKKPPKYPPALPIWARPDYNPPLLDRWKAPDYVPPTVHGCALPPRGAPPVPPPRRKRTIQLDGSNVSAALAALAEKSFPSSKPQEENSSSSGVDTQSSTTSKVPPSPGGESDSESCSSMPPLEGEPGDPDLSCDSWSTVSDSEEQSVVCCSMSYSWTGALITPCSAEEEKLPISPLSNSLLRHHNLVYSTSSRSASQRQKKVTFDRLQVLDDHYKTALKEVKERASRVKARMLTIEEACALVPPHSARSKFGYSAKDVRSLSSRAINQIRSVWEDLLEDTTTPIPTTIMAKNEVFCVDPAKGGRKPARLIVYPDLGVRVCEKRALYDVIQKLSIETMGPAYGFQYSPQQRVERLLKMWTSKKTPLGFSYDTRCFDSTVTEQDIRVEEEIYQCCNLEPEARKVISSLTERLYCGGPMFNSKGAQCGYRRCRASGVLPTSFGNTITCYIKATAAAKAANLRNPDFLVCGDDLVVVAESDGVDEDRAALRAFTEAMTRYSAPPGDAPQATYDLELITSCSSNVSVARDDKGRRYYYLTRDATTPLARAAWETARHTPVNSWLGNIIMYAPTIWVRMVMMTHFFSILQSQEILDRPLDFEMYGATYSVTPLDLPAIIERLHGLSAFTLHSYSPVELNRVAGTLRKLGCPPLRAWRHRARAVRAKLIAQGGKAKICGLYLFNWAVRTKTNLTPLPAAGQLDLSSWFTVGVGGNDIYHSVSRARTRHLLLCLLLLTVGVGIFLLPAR

SMILES	IC50 [1] [nM]	EC50 [2, 7] [nM]	EC50 ([2]; read-out: Replicon 1b EC50) [nM]	synergy in combination with a nucleoside NS5b inhibitor ([3]; with 4-amino-7-(2-C-methyl-β-D-ribofuranosyl)-pyrrolo[2,1-f][1,2,4]triazine, FIG. 1, 95% confidence intervals)	synergy in combination with an NS5a inhibitor ([3]; with BMS-790052, daclatasvir, FIG. 3, 95% confidence intervals)	synergy in combination with a NS3/4a protease inhibitor ([3]; with VX-950, telaprevir, FIG. 2, 95% confidence intervals)	IC50 [4, 8] [nM]	IC50 [4, 9] [nM]	EC50 [5] [nM]	EC50 [6] [nM]
CCN(c1cc2nn(-c3ccc(Cl)cc3)c(C(=O)NC)c2cc1C1CC1)S(C)(=O)=O [Compound 175]	30	< 990	60	statistically significant synergy	statistically significant synergy	statistically significant synergy	< 990	100	260	80
CNC(=O)c1c2cc(C3CC3)c(N(CCC3COC(C)(C)OC3)S(C)(=O)=O)cc2nn1-c1ccc(Cl)cc1 [Compound 235]	30	< 990	40				< 990	90	280	140
